Data reported in US20220380309A1, “CHOLINE METABOLISM INHIBITORS” (President and Fellows of Harvard College, priority 2018, published 2022).
Read-outs that look alike come from different tables or passages of the source.

Tested on: E. coli MS 200-1
Assay: Inhibition of TMA production in whole cells (LC-MS/MS assay for choline TMA-lyase activity, d9-TMA from d9-choline)
Format: cell-based
[1] = Escherichia coli, MS2001, Table 3, TMA generation, 1 mM choline-d9, anaerobic, 3.5 h, 37° C., read-out: EC50 against E. coli MS200-1
[2] = Escherichia coli, MS2001, 3.5 h, read-out: EC50 against E. coli MS200-1
[3] = Escherichia coli, MS2001, Table 2, inhibition of TMA-d9 production, 1 mM choline-d9, anaerobic, 3.5 hrs, 37° C., read-out: EC50
[4] = Table 2, inhibition of TMA-d9 production, 1 mM choline-d9, anaerobic, 3.5 hrs, 37° C., read-out: EC50

Row | EC50 [1] | SMILES | also measured
1 | 2100 µM | C[N+]1(C)CC[C@@H](O)C1 | –
2 | > 30000 µM | CN1CCC(=O)C1 | –
3 | > 30000 µM | C[N+]1(C)CCCC(O)C1 (centres unmarked) | –
4 | – | [2H]C1(O)C=CCN(C)C1 (centres unmarked) | EC50 (Table 3, TMA generation, 1 mM choline-d9, anaerobic, 3.5 h, 37° C., read-out: EC50 against E. coli MS200-1): 30 µM
5 | 9 µM | C[N+]1(C)CC=C[C@H](O)C1 | –
6 | 22 µM | C[N+]1(C)CC=C[C@@H](O)C1 | –
7 | – | OC1C=CCN(CCCl)C1 (centres unmarked) | EC50 [2]: 113 µM
8 | 319 µM | O[C@H]1C=CCN(CC2CC2)C1 | –
9 | 151 µM | O[C@@H]1C=CCN(CC2CC2)C1 | –
10 | 304 µM | COc1ccc(CN2CC=CC(O)C2)cc1 (centres unmarked) | –
11 | 383 µM | COc1ccc(CN2CC=C[C@H](O)C2)cc1 | –
12 | 141 µM | COc1ccc(CN2CC=C[C@@H](O)C2)cc1 | –
13 | 197 µM | OC1C=CCN(Cc2ccco2)C1 (centres unmarked) | –
14 | 225 µM | OC1C=CCN(Cc2cccs2)C1 (centres unmarked) | –
15 | 191 µM | O[C@H]1C=CCN(Cc2cccs2)C1 | –
16 | 213 µM | O[C@@H]1C=CCN(Cc2cccs2)C1 | –
17 | 256 µM | OC1C=CCN(Cc2ccoc2)C1 (centres unmarked) | –
18 | 260 µM | OC1C=CCN(Cc2ccsc2)C1 (centres unmarked) | –
19 | – | OC1C=CCN(Cc2ccccn2)C1 (centres unmarked) | inhibition at 3000 µM (Escherichia coli, MS2001, Table 3, TMA generation of E. coli MS200-1, 3 mM compound): 96%
20 | – | OC1C=CCN(C2CCCC2Cl)C1 (centres unmarked) | EC50 [2]: 52 µM
21 | – | COC(=O)C1CCCC1N1CC=CC(O)C1 (centres unmarked) | inhibition at 1000 µM (Escherichia coli, MS2001, Table 3, TMA generation of E. coli MS200-1, 1 mM compound): 62%
22 | – | COC1CCCCC1N1CC=CC(O)C1 (centres unmarked) | inhibition at 100 µM (Escherichia coli, MS2001, Table 3, TMA generation of E. coli MS200-1, 100 μM compound): 40%
23 | 1790 µM | CC(=O)OC1C=CCN(C)C1 (centres unmarked) | –
24 | – | O[C@@H]1C=CCCC1 | EC50 [2]: 404 µM
25 | – | O[C@H]1C=CCCC1 | EC50 [2]: 482 µM

Row | EC50 [1] | SMILES | also measured
26 | 3800 µM | CC1=CCCCC1O (centres unmarked) | –
27 | 14100 µM | CC1=CC(O)CCC1 (centres unmarked) | –
28 | 112 µM | O[C@H]1C=CCOC1 | –
29 | 84 µM | O[C@@H]1C=CCOC1 | –
30 | 120 µM | CN1CCCCC1CO (centres unmarked) | –
31 | – | OC1C=CCN(C2CCC2)C1 (centres unmarked) [Compound 1] | EC50 [3]: 154 µM
32 | – | OC1C=CCN(C2CCCC2)C1 (centres unmarked) [Compound 2] | EC50 [3]: 54 µM
33 | – | OC1C=CCN(C2CCCCC2)C1 (centres unmarked) [Compound 3] | EC50 [3]: 20 µM
34 | – | OC1C=CCN(C2CCCCCC2)C1 (centres unmarked) [Compound 4] | EC50 [3]: 24 µM
35 | – | CC1CCCC1N1CC=CC(O)C1 (centres unmarked) [Compound 5] | EC50 (Escherichia coli, MS2001, 3.5 h): 15 µM
36 | – | CC1CCCCC1N1CC=CC(O)C1 (centres unmarked) [Compound 6] | EC50 [3]: 2 µM
37 | – | O[C@@H]1C=CCN(C2CCCCC2)C1 [Compound 7] | EC50 [3]: 108 µM
38 | – | O[C@H]1C=CCN(C2CCCCC2)C1 [Compound 8] | EC50 [3]: 14 µM
39 | – | CC1CCCCC1N1CC=C[C@@H](O)C1 (some centres unmarked) [Compound 9] | EC50 [3]: 68 µM
40 | – | CC1CCCCC1N1CC=C[C@H](O)C1 (some centres unmarked) [Compound 10] | EC50 [3]: 1.2 µM
41 | – | CN1CC=CC(O)C1 (centres unmarked) [Compound 11] | EC50 [4]: 10 µM
42 | – | CN1CC=C[C@H](O)C1 [Compound 12] | EC50 [4]: 10 µM
43 | – | CN1CC=C[C@@H](O)C1 [Compound 13] | EC50 [4]: 15 µM
44 | – | CN1CCC(O)C1 (centres unmarked) [Compound 14] | EC50 [3]: 6300 µM
45 | – | CN1CCC(O)CC1 [Compound 15] | EC50 [3]: 4400 µM
46 | – | CN1CCCC(=O)C1 [Compound 16] | EC50 [4]: 9500 µM
47 | – | CN1CCCCC1CN (centres unmarked) [Compound 17] | EC50 [3]: 120 µM
48 | – | CN1CCCC1CO (centres unmarked) [Compound 19] | EC50 [3]: 250 µM
49 | – | CN1CCC[C@H]1CO [Compound 20] | EC50 [3]: 280 µM

Row | SMILES | EC50 [1] | also measured
50 | OC1C=CCN(CCc2ccccc2)C1 (centres unmarked) | 294 µM | –
51 | O[C@H]1C=CCN(C2CCC2)C1 | 116 µM | –
52 | O[C@@H]1C=CCN(C2CCC2)C1 | 193 µM | –
53 | O[C@H]1C=CCN(C2CCCC2)C1 | 41 µM | –
54 | O[C@@H]1C=CCN(C2CCCC2)C1 | 62 µM | –
55 | CC1CCC(N2CC=CC(O)C2)C1 (centres unmarked) | 49 µM | –
56 | OC1C=CCN(C2CCSC2)C1 (centres unmarked) | 173 µM | –
57 | OC1C=CCN(C2CCCCC2F)C1 (centres unmarked) | 12 µM | –
58 | CC1CCCC(N2CC=CC(O)C2)C1 (centres unmarked) | 17 µM | –
59 | CC1CCC(N2CC=CC(O)C2)CC1 (centres unmarked) | 42 µM | –
